Assay results reported in patent EP4656630A1, “NOVEL COMPOUND AS LYSYL-TRNA SYNTHETASE 1 INHIBITOR, AND USE THEREOF” (Zymedi Co., Ltd., priority 2023, dated 2024).

How the values were obtained:
[1] = S9 metabolic stability, rat; format: in vitro ADME
Description: (§1) Among these, secondary MS measurements were conducted for Compound 25 (C0047), Compound 43 (C0216), and C0001 using the S9 method. This test measured the remaining % at 30, 45, and 60 minutes for four species: mouse, rat, dog, and human.

[2] = S9 metabolic stability, human; format: in vitro ADME
Description: as §1

[3] = Microsomal metabolic stability, rat; format: in vitro ADME
Description: (§2) Metabolic stability (MS) evaluation was conducted for the selected compounds by measuring in vitro stability in two species, rat and human, according to the microsomal stability measurement method. As a result, it was identified that MS varied depending on the transformation of parts A, B, and C.

Organ distribution = format: in vivo; design: Organ distribution Plasma (ng/ml): concentration or dose not given beside the values
Raw264.7 cells = assay: KARS1-induced trans-migration assay; format: cell-based, mouse; conditions: Mus musculus, RAW264.7; for inhibition at 1 µM: 1 µM compound, read-out: KARS1-induced Raw264.7 cell migration (% inhibition, 1uM)
Description: C0001 inhibits the binding of KARS1 and 67LR, thereby blocking the migration of monocytes/macrophages and suppressing inflammation. Accordingly, a trans-migration assay using mouse macrophages (Raw264.7) was conducted to preliminarily screen drugs that inhibit the migration of monocytes/macrophages.
Based on this, when KARS1 protein was directly treated externally instead of LN, the trans-migration of Raw264.7 was induced, and the cell migration inhibitory effect of the KARS1 inhibitor C0001 was confirmed. It was verified that C0001, which specifically binds to KARS1, can inhibit cell migration by binding to extracellular KARS1, in addition to the mechanism of inhibiting cell membrane migration of KARS1 induced by laminin and its binding to 67LR, thereby enabling this analysis to be used as a direct method for evaluating in vitro activity against KARS1.
Next, preliminary candidate substances with high inhibitory activity at 1 µM were treated at concentrations of 0.1~4 µM for analysis.

KARS1 and 37LR = biological target: T1, KARS1 and 37LR (Homo sapiens, UniProt Q15046); assay: Cell-free ELISA of KARS1 and 37LR (laminin receptor) binding; conditions: 10 µM compound, 1 hour, plate coated with KARS1 (1-207aa), LRF
T1 construct: KARS1 (1-207aa)
Description: Next, based on the mechanism of action, a cell-free ELISA analysis was conducted to select compounds with high inhibitory activity on the binding of KARS1 and LR (laminin receptor).

Raw 264.7 cells = assay: LN (Laminin 421)-induced immune cell migration, Transwell; format: cell-based; conditions: Mus musculus, RAW264.7; for inhibition at 3 µM: 3 µM compound, LN (Laminin 421 1 µg/ml), 24 hours, % inhibition compared to control group, read-out: Migration inhibitor % (3uM)
Description: Cell migration was assessed based on the method described in the prior literature (Park, S. G. et al. Human lysyl-tRNA synthetase is secreted to trigger proinflammatory response. Proceedings of the National Academy of Sciences, 2005, 102.18: 6356-6361.). The specific experimental method is as follows. A Transwell (Corning#3421-5µm pore) was coated with gelatin (0.5mg/ml), and then Raw 264.7 cells (1 x 10^5 cells/well) were seeded in the upper chamber. Serum-free medium (Serum Free DMEM, 500 µl) containing LN (Laminin 421 1 µg/ml) was added to the lower chamber. Each compound was treated at a concentration of 3µM in the upper chamber. After 24 hours, the cells were fixed with 70% methanol for 30 minutes and stained with 50% hematoxylin for 30 minutes. Non-migrating cells on the upper side of the membrane were removed with a cotton swab, and the membrane was mounted on a slide. Migrating cells on the lower side of the membrane were observed under a high-power microscope, and the number of cells was measured from the obtained images and expressed as the inhibition rate (% inhibition) compared to the control group.

[4] = Microsomal metabolic stability, human; format: in vitro ADME
Description: as §2

[5] = S9 metabolic stability, mouse; format: in vitro ADME
Description: as §1

[6] = S9 metabolic stability, dog; format: in vitro ADME
Description: as §1

[7] = Rat pharmacokinetics (po and iv) and bioavailability; format: in vivo; conditions: for Cmax / Tmax / half-life / AUC: in vivo; for AUC value increase at 30 mpk: 30 mpk compared with 10 mpk
Description: For this purpose, formulations suitable for peroral administration (po) and intravenous injection (iv) for each compound were first selected to ensure stable PK progression.
The formulation was selected under the condition of maintaining a clear solution for more than 1 hour at 10 and 30 mpk doses based on po, and the iv formulation was modified when iv use was not possible based on po (Table 8).
To confirm the oral administration potential of the selected compounds, 10 mpk rat po PK was conducted. The PK profile and key indicators after administering 10 mpk to five compounds, C0001, 25, 41, 42, and 43, are shown in Figure 3 and Table 9.
Based on the previous 10 mpk po rat PK results, 30 mpk po rat PK was conducted for four compounds, C0001, 25, 41, and 43, to confirm changes in the blood PK profile of the substances with increasing doses.
For these compounds, 2 mpk iv rat PK was conducted to calculate bioavailability (BA) (Table 11).

T1 sequence (Q15046 1-207): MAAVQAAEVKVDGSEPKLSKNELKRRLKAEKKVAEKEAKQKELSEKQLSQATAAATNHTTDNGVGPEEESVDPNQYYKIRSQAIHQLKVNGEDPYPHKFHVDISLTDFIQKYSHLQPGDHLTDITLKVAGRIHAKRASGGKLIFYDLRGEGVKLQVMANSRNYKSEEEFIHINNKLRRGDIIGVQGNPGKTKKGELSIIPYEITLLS

COc1ccc(CCN(Cc2ccc(N3CC[C@H](C(=O)O)C3)cc2)c2nc3cccc(F)c3s2)cc1 [Compound 25, (S)-1-(4-(((7-fluorobenzo[d]thiazol-2-yl)(4-methoxyphenethyl)amino)-methyl)phenyl)pyrrolidine-3-carboxylic acid]
Metabolic stability (% remaining at each time) Rat (min) 30 ([1]; 30 min): 86.0% | Metabolic stability (% remaining at each time) Rat (min) 45 ([1]; 45 min): 84.1% | Metabolic stability (% remaining at each time) Rat (min) 60 ([1]; 60 min): 88.5% | Metabolic stability (% remaining at each time) Human (min) 30 ([2]; 30 min): 70.1% | Metabolic stability (% remaining at each time) Human (min) 45 ([2]; 45 min): 75.8% | Metabolic stability (% remaining at each time) Human (min) 60 ([2]; 60 min): 66.8% | Metabolic stability (% remaining at 30 min) Rat [3]: 77% | Organ distribution (ratio per plasma) Brain (Organ distribution; 0.5 h): 0.06 | Organ distribution (ratio per plasma) Brain (Organ distribution; 6.0 h): 0.54 | Organ distribution (ratio per plasma) Heart (Organ distribution; 0.5 h): 0.29 | Organ distribution (ratio per plasma) Heart (Organ distribution; 6.0 h): 0.52 | Organ distribution (ratio per plasma) Kidney (Organ distribution; 0.5 h): 0.38 | Organ distribution (ratio per plasma) Kidney (Organ distribution; 6.0 h): 0.79 | Organ distribution (ratio per plasma) Liver (Organ distribution; 0.5 h): 0.85 | Organ distribution (ratio per plasma) Liver (Organ distribution; 6.0 h): 3.15 | Organ distribution (ratio per plasma) Lung (Organ distribution; 0.5 h): 0.41 | Organ distribution (ratio per plasma) Lung (Organ distribution; 6.0 h): 1.05 | Organ distribution Plasma (ng/ml) (Organ distribution; 0.5 h): 29,901 ng/ml | Organ distribution Plasma (ng/ml) (Organ distribution; 6.0 h): 1,499 ng/ml | inhibition at 1 µM (Raw264.7 cells): 96.2% | EC50 (Raw264.7 cells; KARS1-induced cell migration, 0.1~4 µM): 0.57 µM | inhibition at 10 µM (KARS1 and 37LR): 69.2% | inhibition at 3 µM (Raw 264.7 cells): 83% | EC50 (Raw 264.7 cells; LN-induced cell migration, read-out: EC50 for cell migration inhibition induced by LN): 5.96 µM | Metabolic stability (% remaining at 30 min) Human [4]: 66% | Metabolic stability (% remaining at each time) Mouse (min) 30 ([5]; 30 min): 70.5% | Metabolic stability (% remaining at each time) Mouse (min) 45 ([5]; 45 min): 71.7% | Metabolic stability (% remaining at each time) Mouse (min) 60 ([5]; 60 min): 60.9% | Metabolic stability (% remaining at each time) Dog (min) 30 ([6]; 30 min): 100.6% | Metabolic stability (% remaining at each time) Dog (min) 45 ([6]; 45 min): 93.5% | Metabolic stability (% remaining at each time) Dog (min) 60 ([6]; 60 min): 97.0% | Cmax ([7]; 10 mg/kg, po, 10 mpk): 1750 ng/mL | Tmax ([7]; 10 mg/kg, po, 10 mpk): 1 h | half-life ([7]; 10 mg/kg, po, 10 mpk): 1.34 h | Cmax ([7]; 30 mg/kg, po, 30 mpk): 14400 ng/mL | Tmax ([7]; 30 mg/kg, po, 30 mpk): 2 h | half-life ([7]; 30 mg/kg, po, 30 mpk): 0.76 h | AUC ([7]; iv, 2 mg/kg, 2 mpk): 2410 ng·h/mL | AUC ([7]; po, 10 mg/kg, 10 mpk): > 5000 ng·h/mL | AUC ([7]; po, 10 mg/kg, 10 mpk (Table 11)): 5410 ng·h/mL | AUC ([7]; po, 30 mg/kg, 30 mpk): 53000 ng·h/mL | AUC ([7]; po, 30 mg/kg, 30 mpk (Table 11)): 53000 ng·h/mL | BA (%) ([7]; po, 10 mpk against iv 2 mpk): 44.9% | AUC (ng*h/ml) ([7]; po, 10 mpk, listed as 25 (C0047), 10 mg/kg): 5,109 ng*h/ml | BA (%) ([7]; po, 30 mpk against iv 2 mpk): 146.6% | AUC value increase at 30 mpk ([7]; po): 10.4 times

COc1ccc(CCN(c2nc3cccc(F)c3s2)C(C)c2cccc(N3CC[C@@H](C(=O)O)C3)c2)cc1 (stereo partly drawn) [Compound 41, (3R)-1-(3-(1-((7-fluorobenzo[d]thiazol-2-yl)(4-methoxyphenethyl)-amino)ethyl)phenyl)pyrrolidine-3-carboxylic acid]
Metabolic stability (% remaining at 30 min) Rat [3]: 58% | inhibition at 1 µM (Raw264.7 cells): 90.2% | inhibition at 10 µM (KARS1 and 37LR): 69.6% | inhibition at 3 µM (Raw 264.7 cells): 58.7% | Metabolic stability (% remaining at 30 min) Human [4]: 51% | Cmax ([7]; 10 mg/kg, po, 10 mpk): 4230 ng/mL | Tmax ([7]; 10 mg/kg, po, 10 mpk): 0.83 h | half-life ([7]; 10 mg/kg, po, 10 mpk): 1.96 h | Cmax ([7]; 30 mg/kg, po, 30 mpk): 6470 ng/mL | Tmax ([7]; 30 mg/kg, po, 30 mpk): 1 h | half-life ([7]; 30 mg/kg, po, 30 mpk): 2.13 h | AUC ([7]; po, 30 mg/kg, 30 mpk): 28500 ng·h/mL | AUC (ng*h/ml) ([7]; po, 10 mpk, 10 mg/kg): exceeding 5,000 ng*h/ml | AUC (ng*h/ml) ([7]; po, 10 mpk, listed as 41 (C0189), 10 mg/kg): 11,859 ng*h/ml | AUC value increase at 30 mpk ([7]; po): approximately 2.4 times
